This assay deals with PCSK9 secretion in HepG2 cells. The experiment in a line: Secreted PCSK9 ELISA, HepG2 media. The assay is classed as cell-based, human. To be noted: HepG2, 24 hours; chloroquine 50 μmol/L, Mdivi-1 50 μmol/L, MG132 0.3 μmol/L.

The results in this text go back to patent US10960020B2, “Modulation of PCSK9 and LDLR through DRP1 inhibition” (THE BRIGHAM AND WOMEN'S HOSPITAL, INC., priority 2016, dated 2021).

Experimental: Pitavastatin and T0901317 were synthesized and provided by Kowa Company, Ltd. (Tokyo, Japan), and treated at a dose of 1 μM in all experiments. […] Mdivi-1 in DMSO vehicle was added at a concentration of 50 μM in all experiments. Mdivi-1 in DMSO vehicle was added to cell culture media in a 50 mL tube, vortexed hard for several minutes and then incubated at 37° C. prior to adding to cells to ensure the compound was fully solubilized.
HepG2 cells were obtained from ATCC (Manassas, Va.), and cultured in EMEM with L-glutamine (ATCC) medium, 1% pen/strep, with and without 10% FBS (Thermo Fisher Scientific, Waltham, Mass.) in 12-well plates (Corning, Durham, N.C.). HepG2 cells were plated at a density of 60-70% prior to treatment to avoid clumping. […] Cell viability was assessed by Trypan Blue exclusion using live/dead cell counting on a Countess™ II LT automated cell counter (Thermo Fisher Scientific).

Turning to `CCN(CC)CCCC(C)Nc1ccnc2cc(Cl)ccc12` (stereo not shown) [chloroquine], the “PCSK9 secretion by ELISA (in words)” value was “increased”.
